Measured values taken from the supplement of paper PMC12463676, “Small-molecule dissolution of stress granules by redox modulation benefits ALS models” (Nature Chemical Biology, 2025).

Experiments:
potassium arsenate = compound: O=[As]([O-])(O)O.[K+] [potassium arsenate]; experiment: thermal stability z-score vs DMSO; higher = more thermally stabilized by treatment; details: HeLa; arsenate concentration 1 mM
Procedure: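 Cellular thermal proteome profiling in HeLa cells treated with 1 mM arsenate for 1 h (DMSO pretreatment), heated to ten temperatures (37-66.3 °C). Soluble protein was quantified by TMT mass spectrometry relative to DMSO controls; the thermal stability score was transformed to a z-score; mean of n = 3 experiments.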

lipoamide = compound: NC(=O)CCCCC1CCSS1 [lipoamide]; experiment: as above; details: HeLa, lipoamide concentration 100 µM
Procedure: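 Cellular thermal proteome profiling in HeLa cells. Cells were treated with 100 µM lipoamide for 1 h, with or without 1 mM arsenate for a further 1 h, then heated to ten temperatures (37-66.3 °C), and soluble protein was quantified by TMT mass spectrometry relative to 0.1% DMSO controls. The thermal stability score (sum of log2 fold changes minus the abundance score) was transformed to a z-score; mean of n = 3 experiments.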

[1] = arsenate co-treatment: 1 mM arsenate 1 h
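Also: each temperature applied for 3 min, abundance score taken as mean log2 fold change at the two lowest temperatures, z-score obtained by mean subtraction and division by SD.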

Sequence of UniProt P06748 (P06748 whole entry): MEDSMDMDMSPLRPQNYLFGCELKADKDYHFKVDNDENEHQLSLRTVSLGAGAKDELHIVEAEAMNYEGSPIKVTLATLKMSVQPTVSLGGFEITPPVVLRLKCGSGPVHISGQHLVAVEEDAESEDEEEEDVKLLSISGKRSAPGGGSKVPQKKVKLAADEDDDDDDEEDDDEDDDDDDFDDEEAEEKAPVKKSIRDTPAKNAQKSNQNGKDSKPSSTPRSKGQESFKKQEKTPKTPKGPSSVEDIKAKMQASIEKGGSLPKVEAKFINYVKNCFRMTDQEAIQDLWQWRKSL
Sequence of UniProt Q96AY3 (Q96AY3 whole entry): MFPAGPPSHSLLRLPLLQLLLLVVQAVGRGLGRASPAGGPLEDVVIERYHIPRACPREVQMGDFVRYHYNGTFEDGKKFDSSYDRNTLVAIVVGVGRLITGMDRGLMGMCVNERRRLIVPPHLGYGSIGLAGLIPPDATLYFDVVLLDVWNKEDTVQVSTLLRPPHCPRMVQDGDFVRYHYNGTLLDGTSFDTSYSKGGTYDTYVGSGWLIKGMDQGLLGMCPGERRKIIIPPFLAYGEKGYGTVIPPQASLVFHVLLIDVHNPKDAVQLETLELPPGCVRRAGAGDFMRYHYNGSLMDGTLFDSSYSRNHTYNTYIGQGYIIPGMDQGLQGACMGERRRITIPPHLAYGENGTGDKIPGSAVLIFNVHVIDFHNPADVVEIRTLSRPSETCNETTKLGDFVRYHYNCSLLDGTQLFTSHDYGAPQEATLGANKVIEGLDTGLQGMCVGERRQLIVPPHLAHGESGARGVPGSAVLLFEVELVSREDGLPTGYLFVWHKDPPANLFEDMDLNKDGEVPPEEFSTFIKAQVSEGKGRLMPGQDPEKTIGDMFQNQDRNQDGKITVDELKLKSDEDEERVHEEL
Sequence of UniProt O43293 (O43293 whole entry, looked up): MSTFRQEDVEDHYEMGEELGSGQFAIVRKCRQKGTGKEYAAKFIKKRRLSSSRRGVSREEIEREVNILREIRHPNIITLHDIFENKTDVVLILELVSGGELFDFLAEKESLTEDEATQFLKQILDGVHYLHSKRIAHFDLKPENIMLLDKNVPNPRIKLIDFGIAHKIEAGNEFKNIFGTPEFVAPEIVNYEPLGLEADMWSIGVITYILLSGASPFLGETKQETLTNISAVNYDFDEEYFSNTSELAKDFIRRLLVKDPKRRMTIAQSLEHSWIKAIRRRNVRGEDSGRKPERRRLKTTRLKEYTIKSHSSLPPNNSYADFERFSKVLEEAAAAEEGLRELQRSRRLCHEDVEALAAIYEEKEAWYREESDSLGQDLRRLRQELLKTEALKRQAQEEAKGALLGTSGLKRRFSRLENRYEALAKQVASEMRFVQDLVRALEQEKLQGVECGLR
Sequence of UniProt P15104 (P15104 whole entry): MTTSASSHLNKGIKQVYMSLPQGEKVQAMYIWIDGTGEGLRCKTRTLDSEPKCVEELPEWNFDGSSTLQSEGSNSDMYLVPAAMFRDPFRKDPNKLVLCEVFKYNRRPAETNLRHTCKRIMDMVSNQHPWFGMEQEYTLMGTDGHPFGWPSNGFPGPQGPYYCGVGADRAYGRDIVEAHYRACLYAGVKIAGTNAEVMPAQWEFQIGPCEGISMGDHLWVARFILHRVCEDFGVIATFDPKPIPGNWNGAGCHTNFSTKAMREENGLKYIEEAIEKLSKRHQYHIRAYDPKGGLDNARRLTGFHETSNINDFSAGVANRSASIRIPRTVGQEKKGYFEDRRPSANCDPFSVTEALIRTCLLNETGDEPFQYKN
Sequence of UniProt Q9ULI3 (Q9ULI3 whole entry): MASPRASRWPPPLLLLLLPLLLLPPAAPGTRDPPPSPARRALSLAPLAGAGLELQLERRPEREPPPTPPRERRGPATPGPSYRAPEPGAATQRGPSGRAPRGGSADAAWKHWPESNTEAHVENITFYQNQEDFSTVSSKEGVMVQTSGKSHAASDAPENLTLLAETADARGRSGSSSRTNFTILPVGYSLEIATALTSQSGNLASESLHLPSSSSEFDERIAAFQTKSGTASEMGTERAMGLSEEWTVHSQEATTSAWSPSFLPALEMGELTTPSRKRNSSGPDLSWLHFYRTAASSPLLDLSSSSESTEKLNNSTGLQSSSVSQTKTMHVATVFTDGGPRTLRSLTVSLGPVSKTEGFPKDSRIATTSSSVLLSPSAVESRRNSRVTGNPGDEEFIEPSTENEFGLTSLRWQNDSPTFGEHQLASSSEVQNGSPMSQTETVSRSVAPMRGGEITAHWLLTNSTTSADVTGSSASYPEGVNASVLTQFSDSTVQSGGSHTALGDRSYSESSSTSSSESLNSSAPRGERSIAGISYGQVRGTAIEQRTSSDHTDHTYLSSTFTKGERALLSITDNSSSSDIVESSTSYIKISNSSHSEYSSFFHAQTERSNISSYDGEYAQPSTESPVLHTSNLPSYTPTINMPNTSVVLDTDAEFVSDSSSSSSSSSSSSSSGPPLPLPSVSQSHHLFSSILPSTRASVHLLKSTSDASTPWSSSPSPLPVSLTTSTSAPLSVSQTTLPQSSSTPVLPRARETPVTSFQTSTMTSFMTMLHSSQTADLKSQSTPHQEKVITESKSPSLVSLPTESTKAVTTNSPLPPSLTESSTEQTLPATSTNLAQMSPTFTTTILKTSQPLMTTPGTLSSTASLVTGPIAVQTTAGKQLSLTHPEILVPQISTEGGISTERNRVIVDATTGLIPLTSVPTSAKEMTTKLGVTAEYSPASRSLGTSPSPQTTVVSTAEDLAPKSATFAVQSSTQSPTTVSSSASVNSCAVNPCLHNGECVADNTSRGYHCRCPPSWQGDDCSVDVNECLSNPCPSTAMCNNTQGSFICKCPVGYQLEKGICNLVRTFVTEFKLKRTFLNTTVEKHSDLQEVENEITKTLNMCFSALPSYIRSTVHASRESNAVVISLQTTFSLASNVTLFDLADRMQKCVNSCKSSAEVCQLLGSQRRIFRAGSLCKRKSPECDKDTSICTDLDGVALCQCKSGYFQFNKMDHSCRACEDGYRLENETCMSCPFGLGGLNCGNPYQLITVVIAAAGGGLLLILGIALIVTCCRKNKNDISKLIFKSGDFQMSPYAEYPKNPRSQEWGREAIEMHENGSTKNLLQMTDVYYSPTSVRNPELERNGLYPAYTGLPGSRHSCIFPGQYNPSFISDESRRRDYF
Sequence of UniProt P11310 (P11310 whole entry): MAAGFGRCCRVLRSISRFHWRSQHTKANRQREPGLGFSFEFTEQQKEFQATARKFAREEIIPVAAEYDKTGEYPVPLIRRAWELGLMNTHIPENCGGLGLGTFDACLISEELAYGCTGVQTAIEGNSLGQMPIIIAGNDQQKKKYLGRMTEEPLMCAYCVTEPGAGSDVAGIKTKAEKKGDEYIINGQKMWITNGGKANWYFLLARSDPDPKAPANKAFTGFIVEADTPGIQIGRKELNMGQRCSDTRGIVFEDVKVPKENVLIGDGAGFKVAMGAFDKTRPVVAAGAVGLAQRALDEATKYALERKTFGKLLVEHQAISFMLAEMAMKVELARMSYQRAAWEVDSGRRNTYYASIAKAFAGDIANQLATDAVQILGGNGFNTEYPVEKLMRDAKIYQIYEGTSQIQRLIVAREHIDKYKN
Sequence of UniProt Q9NYA1 (Q9NYA1 whole entry): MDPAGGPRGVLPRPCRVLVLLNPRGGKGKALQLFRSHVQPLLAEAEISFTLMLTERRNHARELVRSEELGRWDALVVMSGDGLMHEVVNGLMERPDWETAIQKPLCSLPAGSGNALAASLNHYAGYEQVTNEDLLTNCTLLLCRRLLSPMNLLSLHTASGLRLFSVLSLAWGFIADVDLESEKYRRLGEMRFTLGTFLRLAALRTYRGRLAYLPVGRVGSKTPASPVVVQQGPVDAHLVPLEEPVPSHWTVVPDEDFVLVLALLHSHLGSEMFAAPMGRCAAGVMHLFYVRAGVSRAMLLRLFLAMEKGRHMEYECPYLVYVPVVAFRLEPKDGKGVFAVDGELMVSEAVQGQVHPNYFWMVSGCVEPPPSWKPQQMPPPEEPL
Sequence of UniProt Q9H694 (Q9H694 whole entry): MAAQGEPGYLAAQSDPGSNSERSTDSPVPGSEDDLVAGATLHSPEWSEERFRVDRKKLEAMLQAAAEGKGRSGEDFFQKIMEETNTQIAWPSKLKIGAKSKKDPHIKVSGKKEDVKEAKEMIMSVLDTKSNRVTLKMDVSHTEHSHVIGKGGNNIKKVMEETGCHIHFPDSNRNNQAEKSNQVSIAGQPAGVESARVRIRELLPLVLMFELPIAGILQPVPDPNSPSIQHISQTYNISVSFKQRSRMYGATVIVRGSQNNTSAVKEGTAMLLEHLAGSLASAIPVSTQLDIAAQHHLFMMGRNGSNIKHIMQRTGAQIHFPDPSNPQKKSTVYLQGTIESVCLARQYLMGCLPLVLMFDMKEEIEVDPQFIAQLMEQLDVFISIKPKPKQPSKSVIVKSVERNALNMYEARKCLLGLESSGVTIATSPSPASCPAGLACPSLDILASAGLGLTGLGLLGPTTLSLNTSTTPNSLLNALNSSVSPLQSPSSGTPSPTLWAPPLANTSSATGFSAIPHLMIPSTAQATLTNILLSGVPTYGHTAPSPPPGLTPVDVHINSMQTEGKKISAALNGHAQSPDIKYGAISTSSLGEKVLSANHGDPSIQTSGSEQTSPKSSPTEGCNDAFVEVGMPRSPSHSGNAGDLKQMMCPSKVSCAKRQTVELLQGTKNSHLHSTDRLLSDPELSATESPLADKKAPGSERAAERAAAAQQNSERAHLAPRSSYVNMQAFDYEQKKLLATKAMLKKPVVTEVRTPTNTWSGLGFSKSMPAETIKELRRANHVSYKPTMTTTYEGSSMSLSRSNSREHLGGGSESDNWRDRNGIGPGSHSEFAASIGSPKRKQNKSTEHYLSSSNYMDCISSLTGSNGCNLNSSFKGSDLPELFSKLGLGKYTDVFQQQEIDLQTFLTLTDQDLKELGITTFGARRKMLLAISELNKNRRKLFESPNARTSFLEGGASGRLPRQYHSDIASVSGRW
Sequence of UniProt Q9BZL1 (Q9BZL1 whole entry): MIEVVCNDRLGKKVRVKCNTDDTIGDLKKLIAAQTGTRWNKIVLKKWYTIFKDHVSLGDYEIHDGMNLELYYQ

Target	thermal stability z-score (potassium arsenate)	thermal stability z-score (lipoamide; [1])	thermal stability z-score (lipoamide; arsenate co-treatment: none)
LRPPRC (UniProt P42704)	-0.267	-1.08	-0.312
SPHK1 (UniProt Q9NYA1)	-0.0222	0.328	0.0728
CTBP2 (UniProt P56545)	0.448	0.985	-0.0596
MYO6 (UniProt Q9UM54)	-0.115	0.203	0.26
LPCAT3 (UniProt Q6P1A2)	0.724	0.125	0.0829
DHRS7B (UniProt Q6IAN0)	0.0755	0.315	-0.159
FHL2 (UniProt Q14192)	-6.31	-1.64	-0.905
WDR73 (UniProt Q6P4I2)	-0.351	0.0525	-0.0893
ACADM (UniProt P11310)	-1.07	0.376	0.186
RNF220 (UniProt Q5VTB9)	-0.283	-0.19	-0.015
TONSL (UniProt Q96HA7)	-0.339	-0.0593	0.0162
GGA1 (UniProt Q9UJY5)	0.27	-0.523	-0.393
THADA (UniProt Q6YHU6)	-0.361	-0.42	-0.349
DGAT1 (UniProt O75907)	-0.264	-0.44	-0.27
DAPK3 (UniProt O43293)	0.228	-0.0576	-0.0876
ACOX1 (UniProt Q15067)	0.389	0.516	0.379
TBL1XR1 (UniProt Q9BZK7)	-0.746	1.11	0.307
THBS1 (UniProt P07996)	-0.825	-0.588	-0.841
IPO5 (UniProt O00410)	-0.498	0.21	-0.103
PDLIM2 (UniProt Q96JY6)	-0.0521	-0.719	-0.463
HDHD3 (UniProt Q9BSH5)	-2.27	-0.136	-0.867
COPG1 (UniProt Q9Y678)	-0.32	0.243	-0.177
PIBF1 (UniProt Q8WXW3)	-0.0727	-0.108	-0.184
GLUL (UniProt P15104)	-1.16	0.732	0.282

Target	thermal stability z-score (potassium arsenate)	thermal stability z-score (lipoamide; [1])	thermal stability z-score (lipoamide; arsenate co-treatment: none)
PSPC1 (UniProt Q8WXF1)	0.449	-0.0313	0.551
SLTM (UniProt Q9NWH9)	-0.561	0.712	-0.493
ZNF281 (UniProt Q9Y2X9)	0.133	-0.165	-0.214
CCDC85C (UniProt A6NKD9)	-0.0463	0.0231	0.186
GPBP1 (UniProt Q86WP2)	-0.111	-0.514	-0.441
PPP2R5C (UniProt Q13362)	-0.0211	1.38	0.649
RPL24 (UniProt P83731)	-0.927	0.228	-0.084
TMX4 (UniProt Q9H1E5)	0.19	-1.34	-1.22
DCK (UniProt P27707)	-5	0.519	0.335
FKBP10 (UniProt Q96AY3)	0.321	-3.58	-2.95
SMARCE1 (UniProt Q969G3)	0.125	1.96	1.55
TWF2 (UniProt Q6IBS0)	-0.697	-0.088	-0.182
TRIP10 (UniProt Q15642)	-0.0864	0.15	0.0699
MFSD12 (UniProt Q6NUT3)	1.14	-0.485	-1.79
CD44 (UniProt P16070)	0.197	0.358	0.287
TSEN15 (UniProt Q8WW01)	0.473	-0.438	-0.0314
CLPX (UniProt O76031)	0.139	-0.306	-0.172
MRGBP (UniProt Q9NV56)	-0.45	0.386	-0.212
NUP155 (UniProt O75694)	0.275	-0.814	-0.769
BICC1 (UniProt Q9H694)	-0.19	0.291	0.353
BCAP29 (UniProt Q9UHQ4)	-0.458	0.262	0.211
RNF34 (UniProt Q969K3)	-0.392	-0.0298	0.0211
MGME1 (UniProt Q9BQP7)	-0.00686	0.201	0.117
C16ORF62 (UniProt Q7Z3J2)	0.119	0.411	0.213

Target	thermal stability z-score (potassium arsenate)	thermal stability z-score (lipoamide; [1])	thermal stability z-score (lipoamide; arsenate co-treatment: none)
SURF1 (UniProt Q15526)	0.165	-1.27	-0.521
NMT1 (UniProt P30419)	1.15	0.237	-0.0177
MLX (UniProt Q9UH92)	0.0805	-0.0303	-0.272
RPLP2 (UniProt P05387)	0.225	1.56	1.34
PITPNC1 (UniProt Q9UKF7)	-0.255	-0.545	-0.37
BAX (UniProt Q07812)	1.46	0.343	1.42
EMC4 (UniProt Q5J8M3)	0.26	-0.342	0.294
AGPAT2 (UniProt O15120)	0.392	-0.401	0.198
MRM1 (UniProt Q6IN84)	-0.991	-0.994	-0.349
MICU2 (UniProt Q8IYU8)	0.583	-0.422	-0.315
STK25 (UniProt O00506)	0.496	0.466	-0.862
GSTM3 (UniProt P21266)	1.48	0.731	0.402
FAM105A (UniProt Q9NUU6)	0.337	-0.00141	-0.0135
RHOT1 (UniProt Q8IXI2)	-0.708	-0.488	-0.262
CNOT4 (UniProt O95628)	0.494	-0.171	-0.00856
ITFG1 (UniProt Q8TB96)	0.61	-0.794	-0.597
SGTB (UniProt Q96EQ0)	-0.308	0.0457	0.112
SUMF2 (UniProt Q8NBJ7)	0.544	-3.47	-2.99
NPM1 (UniProt P06748)	-1.07	1.35	0.674
HEG1 (UniProt Q9ULI3)	0.868	-0.842	1.15
UBL5 (UniProt Q9BZL1)	-0.107	-0.115	-0.0438
AGO1 (UniProt Q9UL18)	-0.337	-0.0919	-0.396
SLC15A4 (UniProt Q8N697)	-0.239	0.836	0.0913
